According to ChEMBL document CHEMBL3091293, “The synthesis and biodistribution of [(11)C]metformin as a PET probe to study hepatobiliary transport mediated by the multi-drug and toxin extrusion transporter 1 (MATE1) in vivo” (Bioorg Med Chem, 2013):

Columns and labels:
Format in all cases: ADME, organism-based
[1] = tested on: Spleen; experiment: Biodistribution in spleen of ddY mouse at 5.6 +/- 2.1 MBq, iv measured per gram of tissue at 90 mins by gamma-ray counting analysis; conditions: in vivo, 1.5 h
[2] = tested on: Liver; experiment: Biodistribution in liver of ddY mouse at 5.6 +/- 2.1 MBq, iv measured per gram of tissue at 45 mins by gamma-ray counting analysis; conditions: in vivo, 0.75 h
[3] = tested on: Mus musculus; experiment: Biodistribution in heart wall of ddY mouse at 5.6 +/- 2.1 MBq, iv measured per gram of tissue at 90 mins by gamma-ray counting analysis; conditions: in vivo, 1.5 h
[4] = tested on: Pancreas; experiment: Biodistribution in pancreas of ddY mouse at 5.6 +/- 2.1 MBq, iv measured per gram of tissue at 60 mins by gamma-ray counting analysis; conditions: in vivo, 1 h
[5] = tested on: Mus musculus; experiment: Biodistribution in stomach wall of ddY mouse at 5.6 +/- 2.1 MBq, iv measured per gram of tissue at 90 mins by gamma-ray counting analysis; conditions: in vivo, 1.5 h
[6] = tested on: Mus musculus; experiment: Biodistribution in remaining body parts of ddY mouse at 5.6 +/- 2.1 MBq, iv measured per gram of tissue at 45 mins by gamma-ray counting analysis; conditions: in vivo, 0.75 h
[7] = tested on: Kidney; experiment: Drug uptake in kidney of ddY mouse at 127 +/- 35 MBq/kg, iv measured up to 4.5 mins by microPET image analysis in presence of MATE1 inhibitor pyrimethamine; conditions: in vivo, 0.075 h
[8] = tested on: Mus musculus; experiment: Biodistribution in remaining body parts of ddY mouse at 5.6 +/- 2.1 MBq, iv measured per gram of tissue at 30 mins by gamma-ray counting analysis; conditions: in vivo, 0.5 h
[9] = tested on: Mus musculus; experiment: Biodistribution in stomach wall of ddY mouse at 5.6 +/- 2.1 MBq, iv measured per gram of tissue at 45 mins by gamma-ray counting analysis; conditions: in vivo, 0.75 h
[10] = tested on: Mus musculus; experiment: Biodistribution in remaining body parts of ddY mouse at 14.6 +/- 2.1 MBq, iv measured per gram of tissue at 5 mins by PET image analysis; conditions: in vivo
[11] = tested on: Mus musculus; experiment: Biodistribution in stomach wall of ddY mouse at 5.6 +/- 2.1 MBq, iv measured per gram of tissue at 15 mins by gamma-ray counting analysis; conditions: in vivo, 0.25 h
[12] = tested on: Mus musculus; experiment: Biodistribution in heart wall of ddY mouse at 5.6 +/- 2.1 MBq, iv measured per gram of tissue at 15 mins by gamma-ray counting analysis; conditions: in vivo, 0.25 h
[13] = tested on: Lung; experiment: Biodistribution in lung of ddY mouse at 5.6 +/- 2.1 MBq, iv measured per gram of tissue at 15 mins by gamma-ray counting analysis; conditions: in vivo, 0.25 h
[14] = tested on: Kidney; experiment: Biodistribution in kidney of ddY mouse at 5.6 +/- 2.1 MBq, iv measured per gram of tissue at 30 mins by gamma-ray counting analysis; conditions: in vivo, 0.5 h
[15] = tested on: Pancreas; experiment: Biodistribution in pancreas of ddY mouse at 5.6 +/- 2.1 MBq, iv measured per gram of tissue at 15 mins by gamma-ray counting analysis; conditions: in vivo, 0.25 h
[16] = tested on: Kidney; experiment: Biodistribution in kidney of ddY mouse at 5.6 +/- 2.1 MBq, iv measured per gram of tissue at 35 mins by gamma-ray counting analysis; conditions: in vivo
[17] = tested on: Mus musculus; experiment: Biodistribution in large intestine wall of ddY mouse at 5.6 +/- 2.1 MBq, iv measured per gram of tissue at 60 mins by gamma-ray counting analysis; conditions: in vivo, 1 h
[18] = tested on: Spleen; experiment: Biodistribution in spleen of ddY mouse at 5.6 +/- 2.1 MBq, iv measured per gram of tissue at 60 mins by gamma-ray counting analysis; conditions: in vivo, 1 h
[19] = tested on: Mus musculus; experiment: Biodistribution in small intestine wall of ddY mouse at 5.6 +/- 2.1 MBq, iv measured per gram of tissue at 15 mins by gamma-ray counting analysis; conditions: in vivo, 0.25 h
[20] = tested on: Mus musculus; experiment: Biodistribution in remaining body parts of ddY mouse at 5.6 +/- 2.1 MBq, iv measured per gram of tissue at 35 mins by gamma-ray counting analysis; conditions: in vivo
[21] = tested on: Thyroid gland; experiment: Biodistribution in thyroid of ddY mouse at 5.6 +/- 2.1 MBq, iv measured per gram of tissue at 35 mins by gamma-ray counting analysis; conditions: in vivo
[22] = tested on: Mus musculus; experiment: Biodistribution in small intestine wall of ddY mouse at 5.6 +/- 2.1 MBq, iv measured per gram of tissue at 35 mins by gamma-ray counting analysis; conditions: in vivo
[23] = tested on: Mus musculus; experiment: Biodistribution in stomach wall of ddY mouse at 5.6 +/- 2.1 MBq, iv measured per gram of tissue at 35 mins by gamma-ray counting analysis; conditions: in vivo
[24] = tested on: Mus musculus; experiment: Biodistribution in small intestine wall of ddY mouse at 5.6 +/- 2.1 MBq, iv measured per gram of tissue at 60 mins by gamma-ray counting analysis; conditions: in vivo, 1 h
[25] = tested on: Liver; experiment: Biodistribution in liver of ddY mouse at 5.6 +/- 2.1 MBq, iv measured per gram of tissue at 60 mins by gamma-ray counting analysis; conditions: in vivo, 1 h
[26] = tested on: Mus musculus; experiment: Biodistribution in heart wall of ddY mouse at 5.6 +/- 2.1 MBq, iv measured per gram of tissue at 30 mins by gamma-ray counting analysis; conditions: in vivo, 0.5 h
[27] = tested on: Mus musculus; experiment: Biodistribution in urinary bladder of ddY mouse at 14.6 +/- 2.1 MBq, iv measured per gram of tissue at 27.5 mins by PET image analysis; conditions: in vivo
[28] = tested on: Liver; experiment: Drug uptake in liver of ddY mouse at 127 +/- 35 MBq/kg, iv after 2 mins by microPET image analysis; conditions: in vivo
[29] = tested on: Kidney; experiment: Biodistribution in kidney of ddY mouse at 14.6 +/- 2.1 MBq, iv measured per gram of tissue at 5 mins by PET image analysis; conditions: in vivo
[30] = tested on: Mus musculus; experiment: Biodistribution in large intestine wall of ddY mouse at 5.6 +/- 2.1 MBq, iv measured per gram of tissue at 15 mins by gamma-ray counting analysis; conditions: in vivo, 0.25 h
[31] = tested on: Kidney; experiment: Drug uptake in kidney of ddY mouse at 127 +/- 35 MBq/kg, iv measured up to 4.5 mins by microPET image analysis; conditions: in vivo, 0.075 h
[32] = tested on: Mus musculus; experiment: Biodistribution in large intestine wall of ddY mouse at 5.6 +/- 2.1 MBq, iv measured per gram of tissue at 35 mins by gamma-ray counting analysis; conditions: in vivo
[33] = tested on: Mus musculus; experiment: Biodistribution in stomach wall of ddY mouse at 5.6 +/- 2.1 MBq, iv measured per gram of tissue at 30 mins by gamma-ray counting analysis; conditions: in vivo, 0.5 h
[34] = tested on: Thyroid gland; experiment: Biodistribution in thyroid of ddY mouse at 5.6 +/- 2.1 MBq, iv measured per gram of tissue at 90 mins by gamma-ray counting analysis; conditions: in vivo, 1.5 h
[35] = tested on: Kidney; experiment: Biodistribution in kidney of ddY mouse at 14.6 +/- 2.1 MBq, iv measured per gram of tissue at 14 mins by PET image analysis; conditions: in vivo
[36] = tested on: Liver; experiment: Drug uptake in liver of ddY mouse at 127 +/- 35 MBq/kg, iv measured up to 6 to 7 mins by microPET image analysis in presence of MATE1 inhibitor pyrimethamine; conditions: in vivo
[37] = tested on: Pancreas; experiment: Biodistribution in pancreas of ddY mouse at 5.6 +/- 2.1 MBq, iv measured per gram of tissue at 90 mins by gamma-ray counting analysis; conditions: in vivo, 1.5 h

- Drug uptake [1]: 0.087 %ID
- Drug uptake [2]: 0.827 %ID
- Drug uptake [3]: 0.041 %ID
- Drug uptake [4]: 0.281 %ID
- Drug uptake [5]: 0.14 %ID
- Drug uptake [6]: 17.28 %ID
- Drug uptake [7]: Active
- Drug uptake [8]: 18.728 %ID
- Drug uptake [9]: 0.08 %ID
- Drug uptake [10]: 51.908 %ID
- Drug uptake [11]: 0.347 %ID
- Drug uptake [12]: 0.102 %ID
- Drug uptake [13]: 0.254 %ID
- Drug uptake [14]: 1.111 %ID
- Drug uptake [15]: 0.295 %ID
- Drug uptake [16]: 0.274 %ID
- Drug uptake [17]: 0.395 %ID
- Drug uptake [18]: 0.139 %ID
- Drug uptake [19]: 3.409 %ID
- Drug uptake [20]: 20.55 %ID
- Drug uptake [21]: 0.003 %ID
- Drug uptake [22]: 2.06 %ID
- Drug uptake [23]: 0.091 %ID
- Drug uptake [24]: 2.543 %ID
- Drug uptake [25]: 1.631 %ID
- Drug uptake [26]: 0.044 %ID
- Drug uptake [27]: 66.041 %ID
- Drug uptake [28]: Not Active
- Drug uptake [29]: 6.576 %ID
- Drug uptake [30]: 0.659 %ID
- Drug uptake [31]: Active
- Drug uptake [32]: 0.342 %ID
- Drug uptake [33]: 0.173 %ID
- Drug uptake [34]: 0.013 %ID
- Drug uptake [35]: 4.906 %ID
- Drug uptake [36]: Active
- Drug uptake [37]: 0.339 %ID
Compound: CN([11CH3])C(=N)NC(=N)N
